Data as given in ChEMBL document CHEMBL1201862, “PubChem BioAssay data set” (2004).
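Compound exposure: 48 hours, 5 concentrations, 96-well plates. GI50 = concentration required for 50% inhibition of growth.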 Activity calls are given as the source filed them. No stated cut-off is given here; in the data, active = GI50 up to about 1.1 µM and inactive = higher.

Tests used:
Assay in all cases: NCI-60 cell line screen, 48 h
HL-60 = system: HL-60
HCT-116 = system: HCT-116
KM12 = system: KM12
SF-295 = system: SF-295
HOP-62 = system: HOP-62
SK-MEL-28 = system: SK-MEL-28
SNB-19 = system: SNB-19
K562 = system: K562
NCI/ADR-RES = system: NCI/ADR-RES
RXF 393 = system: RXF 393
SN12C = system: SN12C
SW-620 = system: SW-620
LOX IMVI = system: LOX IMVI
CAKI-1 = system: CAKI-1
NCI-H226 = system: NCI-H226
OVCAR-8 = system: OVCAR-8
PC-3 = system: PC-3
CCRF-CEM = system: CCRF-CEM
MDA-MB-231 = system: MDA-MB-231
SR = system: SR

Measured: GI50

COC(=O)c1ccc(-n2c(C)nc(=O)c(-c3ccccc3)c2C)cc1
inactive: HL-60 > 100 µM | HCT-116 > 100 µM | KM12 > 100 µM | SF-295 > 100 µM | HOP-62 > 100 µM | SK-MEL-28 > 100 µM | SNB-19 > 100 µM | K562 > 100 µM | NCI/ADR-RES > 100 µM | RXF 393 > 100 µM | SN12C > 100 µM | SW-620 > 100 µM | LOX IMVI > 100 µM | CAKI-1 > 100 µM | NCI-H226 > 100 µM | OVCAR-8 > 100 µM | PC-3 > 100 µM | CCRF-CEM > 100 µM | MDA-MB-231 > 100 µM | SR > 100 µM

NC(=O)C(c1ccccc1)N1OC2C(=O)N(c3ccccc3)C(=O)C2C1c1c2ccccc2c(Cl)c2ccccc12 (stereo not given)
inactive: HL-60 > 100 µM | HCT-116 > 100 µM | KM12 > 100 µM | SF-295 > 100 µM | HOP-62 > 100 µM | SK-MEL-28 > 100 µM | SNB-19 > 100 µM | K562 > 100 µM | NCI/ADR-RES > 100 µM | RXF 393 > 100 µM | SN12C > 100 µM | SW-620 > 100 µM | LOX IMVI > 100 µM | CAKI-1 > 100 µM | NCI-H226 > 100 µM | OVCAR-8 > 100 µM | PC-3 > 100 µM | CCRF-CEM 61.4 µM | MDA-MB-231 > 100 µM | SR > 100 µM

O=C(O)CC1NCc2cc3ccccc3nc21 (stereo not given)
inactive: HL-60 > 100 µM | HCT-116 > 100 µM | KM12 > 100 µM | SF-295 > 100 µM | HOP-62 > 100 µM | SK-MEL-28 > 100 µM | SNB-19 > 100 µM | K562 > 100 µM | NCI/ADR-RES > 100 µM | RXF 393 > 100 µM | SN12C > 100 µM | SW-620 > 100 µM | LOX IMVI > 100 µM | CAKI-1 > 100 µM | NCI-H226 > 100 µM | OVCAR-8 > 100 µM | PC-3 > 100 µM | CCRF-CEM > 100 µM | MDA-MB-231 > 100 µM | SR > 100 µM

O=C(/C=C/c1ccc(/C=C/C(=O)c2ccc(O)cc2)cc1)c1ccc(O)cc1
inactive: HL-60 > 100 µM | HCT-116 > 100 µM | KM12 > 100 µM | SF-295 > 100 µM | HOP-62 > 100 µM | SK-MEL-28 > 100 µM | SNB-19 > 100 µM | K562 > 100 µM | NCI/ADR-RES > 100 µM | RXF 393 > 100 µM | SN12C > 100 µM | SW-620 > 100 µM | LOX IMVI 33.8 µM | CAKI-1 > 100 µM | NCI-H226 > 100 µM | OVCAR-8 > 100 µM | PC-3 > 100 µM | CCRF-CEM > 100 µM | MDA-MB-231 > 100 µM | SR > 100 µM
